# Reference: patent publication US20260356957A1, “METHODS FOR TREATMENT OF NON-SMALL CELL LUNG CANCER (NSCLC)” (Janssen Biotech, Inc., priority 2023, published 2026)
# Values joined by “and” are separate entries in the source; they are usually repeats but may differ in a detail not shown here. Identical values can stand only once. “Also recorded” adds a separate entry of the source.
# Assays:
# Format in all cases: in vivo, human
# [1] = test system: EGFR-mutated locally advanced or metastatic NSCLC; assay: MARIPOSA Phase 3, progression-free survival by BICR; conditions: for Median progression-free survival (95% CI): median follow-up 22.0 months
# Source text: The primary endpoint of the study is PFS (using RECIST v1.1 guidelines) as assessed by blinded independent central review (BICR).
# [2] = test system: EGFR-mutated locally advanced or metastatic NSCLC; assay: MARIPOSA Phase 3, overall survival; conditions: for Median overall survival (95% CI): interim analysis
# [3] = test system: EGFR-mutated locally advanced or metastatic NSCLC; assay: MARIPOSA Phase 3, objective response by BICR (RECIST v1.1)
# [4] = test system: EGFR-mutated locally advanced or metastatic NSCLC; assay: MARIPOSA Phase 3, duration of response by BICR
# [5] = test system: EGFR-mutated locally advanced or metastatic NSCLC; assay: MARIPOSA Phase 3, progression-free survival after first subsequent therapy (PFS2)
# Source text: The efficacy population included all patients who had undergone randomization. Tick marks indicate censoring of data. […]
# [6] = test system: EGFR-mutated locally advanced or metastatic NSCLC; assay: MARIPOSA Phase 3, time to symptomatic progression (TTSP)
# [7] = test system: EGFR-mutated locally advanced or metastatic NSCLC; assay: MARIPOSA Phase 3, time to subsequent therapy (TTST) and subsequent therapy
# [8] = test system: EGFR-mutated NSCLC with brain metastasis; assay: MARIPOSA Phase 3, intracranial PFS by BICR in participants with history of brain metastasis
# Source text: • 1. […] Intracranial PFS [Time Frame: Up to approximately 42 months]. […] Incidence and Severity of Adverse Events (AEs) [Time Frame: Up to approximately 60 months]. Incidence and severity of treatment emergent adverse events (TEAEs) will be reported. Any adverse event occurring at or after the initial administration of study treatment through the day of last dose plus 30 days, or until the start of subsequent anticancer therapy (if earlier), is considered to be treatment emergent. • 8. Number of Participants with Clinical Laboratory Abnormalities [Time Frame: Up to approximately 60 months]. Number of participants with clinical laboratory abnormalities (serum chemistry, hematology, blood coagulation, and urine samples) will be reported. • 9. Number of Participants with Vital Signs Abnormalities [Time Frame: Up to approximately 60 months]. Number of participants with vital signs abnormalities (temperature, heart rate, respiratory rate, oxygen saturation, blood pressure) will be reported. • 10. Number of Participants with Physical Examination Abnormalities [Time Frame: Up to approximately 60 months]. Number of participants with physical examination abnormalities will be reported. • 11. […] Number of Participants with Anti-Amivantamab Antibodies [Time Frame: Up to approximately 42 months]. […] Change from Baseline in Non-Small Cell Lung Cancer-Symptom Assessment Questionnaire (NCSLC-SAQ) [Time Frame: Baseline Up to approximately 42 months]. The NSCLC-SAQ contains 7 items that assess cough, pain, dyspnea, fatigue, and poor appetite over a 7-day recall period. Each multi-item scale and individual item will be summarized using count and percent by visit. • 15. Change from Baseline in European Organization of Research and Treatment of Cancer Quality of Life Questionnaire Core 30 (EORTC-QLQ-C30) [Time Frame: Baseline Up to approximately 42 months]. EORTC-QLQ-C30 is a core 30-item questionnaire for evaluating the health-related quality of life (HRQOL) of participants participating in cancer clinical studies. • 16.
# [9] = test system: EGFR-mutated locally advanced or metastatic NSCLC; assay: MARIPOSA Phase 3, extracranial progression-free survival by BICR; conditions: CNS-only first progression censored
# Source text: The efficacy population included all patients who had undergone randomization. Extracranial progression-free survival was defined as time from randomization to disease progression (detected by extracranial scans) or death. If first progression was detected solely in the CNS, these patients were censored at the time of CNS disease progression. The dashed lines indicate the median extracranial progression-free survival in the two groups; tick marks indicate censoring of data. 95% CI widths have not been adjusted for multiplicity and cannot be used to infer definitive treatment effects. CNS denotes central nervous system. Since MARIPOSA performed serial brain imaging, a sensitivity analysis was conducted censoring CNS-only, first progression events.
# Ex19del and L858R ctDNA = assay: MARIPOSA Phase 3, EGFRm ctDNA in blood by ddPCR; conditions: patients with matched samples
# Method: Detection of circulating tumor (ctDNA) and co-mutations were analyzed by next-generation sequencing (NGS) of blood at baseline.
# Detection of ctDNA and co-mutations were analyzed by next-generation sequencing (NGS) of blood at baseline. Detection and clearance of Ex19del and L858R ctDNA in blood were analyzed with ddPCR at baseline and C3D1.
# Detectable EGFRm ctDNA at Baseline and On Treatment: Detection and clearance of Ex19del and L858R ctDNA in the blood were analyzed by ddPCR (Ex19del or L858R by Biodesix ddPCR).
compound,measurement,setting,value
C=CC(=O)Nc1cc(Nc2nccc(-c3cn(C)c4ccccc34)n2)c(OC)cc1N(C)CCN(C)C [Osimertinib],PFS 6-month event-free rate (95% CI),[1],"0.85 (0.83, 0.88)"
same,PFS 18-month event-free rate (95% CI),[1],"0.48 (0.43, 0.53)"
same,PFS 24-month event-free rate (95% CI),[1],"0.34 (0.26, 0.39)"
same,PFS 30-month event-free rate (95% CI),[1],"0.30 (0.24, 0.36)"
same,Censored (PFS),[1]; Full Analysis Set,177 (41.3%) (%)
same,Event (PFS),[1]; Full Analysis Set,252 (58.7%) (%)
same,"PFS time to event, 25th percentile (95% CI)",[1]; Full Analysis Set,"9.23 (7.49, 10.94) months"
same,"PFS time to event, 75th percentile (95% CI)",[1]; Full Analysis Set,"NE (27.50, NE)"
same,"Progression-free survival, Patients (95% CI) at 12 months",[1]; efficacy population,65 (60-69) %
same,"Progression-free survival, Patients (95% CI) at 18 months",[1]; efficacy population,48 (43-53) %
same,"Progression-free survival, Patients (95% CI) at 24 months",[1]; efficacy population,34 (28-39) %
same,Median progression-free survival (95% CI),[1],"16.59 (14.78, 18.46) months"
same,Median progression-free survival (95% CI),[1]; listed as osimertinib,16.6 months and 16.59 months
same,Censored (OS),[2]; Full Analysis Set,312 (72.7%) (%)
same,Event (OS),[2]; Full Analysis Set,117 (27.3%) (%)
same,OS 6-month event-free rate (95% CI),[2]; Full Analysis Set,"0.96 (0.93, 0.97)"
same,OS 12-month event-free rate (95% CI),[2]; Full Analysis Set,"0.88 (0.85, 0.91)"
same,OS 18-month event-free rate (95% CI),[2]; Full Analysis Set,"0.79 (0.75, 0.83)"
same,OS 30-month event-free rate (95% CI),[2]; Full Analysis Set,"0.62 (0.52, 0.70)"
same,"OS time to event, 25th percentile (95% CI)",[2]; Full Analysis Set,"20.30 (18.00, 23.59) months"
same,"OS time to event, 75th percentile (95% CI)",[2]; NE = not estimable,"NE (NE, NE)"
same,"Overall survival, Patients (95% CI) at 12 months",[2]; efficacy population,88 (85-91) %
same,"Overall survival, Patients (95% CI) at 18 months",[2]; efficacy population,79 (75-83) %
same,"Overall survival, Patients (95% CI) at 24 months",[2]; efficacy population,69 (64-74) %
same,Median overall survival (95% CI),[2]; NE = not estimable,"NE (NE, NE)"
same,Median overall survival (95% CI),"[2]; NE = not estimable, listed as osimertinib",not reached; also recorded: could not be estimated
same,Best overall response: Not evaluable,[3],11 (3) no. (%)
same,Best overall response: Progressive disease,[3],11 (3) no. (%)
same,Best overall response: Stable disease,[3],42 (10) no. (%)
same,Best overall response: Complete response,[3]; all responders,15 (4) no. (%)
same,Best overall response: Partial response,[3]; all responders,335 (81) no. (%)
same,Complete Response (CR),[3]; best overall response,15 (3.0%) (%)
same,Not Evaluable (NE),[3]; best overall response,11 (2.7%) (%)
same,Partial Response (PR),[3]; best overall response,335 (80.9%) (%)
same,Progressive Disease (PD),[3]; best overall response,11 (2.7%) (%)
same,"Objective response rate, Patients (95% CI), all responders",[3]; measurable disease at baseline,85 (81-88) %
same,"Objective response, Patients (95% CI) including only confirmed responders",[3]; measurable disease at baseline,76 (71-80) %
same,Objective response rate (CR + PR),"[3]; measurable disease at baseline, RECIST v1.1",350 (84.5%) (%)
same,"Objective response rate, Patients (95% CI), all responders","[3]; measurable disease at baseline, listed as osimertinib",85%
same,"Response duration, Median (95% CI) among all responders",[4],14.9 (12.9-17.5) mo
same,"Response duration, Median (95% CI) among confirmed responders",[4],16.8 (14.8-18.5) mo
same,Censored (DOR),[4]; confirmed responders,151 (48.1%) (%)
same,"DOR time to event, 25th percentile (95% CI)",[4]; confirmed responders,"9.26 (9.13, 10.25) months"
same,Duration of response >=6 months,[4]; confirmed responders,267 (65.0%) (%)
same,Duration of response >=12 months,[4]; confirmed responders,181 (57.6%) (%)
same,Duration of response >=18 months,[4]; confirmed responders,86 (27.4%) (%)
same,Duration of response >=24 months,[4]; confirmed responders,21 (6.7%) (%)
same,Event (DOR),[4]; confirmed responders,163 (51.9%) (%)
same,Median duration of response (95% CI),[4]; confirmed responders,"16.76 (14.75, 18.53) months"
same,"DOR time to event, 75th percentile (95% CI)","[4]; confirmed responders, NE = not estimable","NE (NE, NE)"
same,Median duration of response (95% CI),"[4]; confirmed responders, listed as osimertinib",16.8 months
same,Confirmed Responders (Confirmed CR + Confirmed PR),"[4]; number of patients, measurable disease at baseline",314
same,Censored (PFS2),[5]; Full Analysis Set,299 (60.7%) (%)
same,Event (PFS2),[5]; Full Analysis Set,130 (30.3%) (%)
same,PFS2 6-month event-free rate (95% CI),[5]; Full Analysis Set,"0.95 (0.93, 0.97)"
same,PFS2 18-month event-free rate (95% CI),[5]; Full Analysis Set,"0.76 (0.71, 0.80)"
same,PFS2 30-month event-free rate (95% CI),[5]; Full Analysis Set,"0.56 (0.46, 0.66)"
same,PFS2 Median (95% CI),[5]; Full Analysis Set,"NE (29.31, NE)"
same,"PFS2 time to event, 25th percentile (95% CI)",[5]; Full Analysis Set,"18.40 (15.93, 20.50) months"
same,"PFS2 time to event, 75th percentile (95% CI)",[5]; NE = not estimable,"NE (NE, NE)"
same,Censored (TTSP),[6]; Full Analysis Set,202 (61.1%) (%)
same,Death without Symptomatic PD,[6]; Full Analysis Set,49 (11.4%) (%)
same,Event (TTSP),[6]; Full Analysis Set,167 (38.9%) (%)
same,Symptomatic PD,[6]; Full Analysis Set,118 (27.5%) (%)
same,TTSP 6-month event-free rate (95% CI),[6]; Full Analysis Set,"0.90 (0.87, 0.93)"
same,TTSP 12-month event-free rate (95% CI),[6]; Full Analysis Set,"0.79 (0.74, 0.82)"
same,TTSP 18-month event-free rate (95% CI),[6]; Full Analysis Set,"0.67 (0.63, 0.72)"
same,TTSP 24-month event-free rate (95% CI),[6]; Full Analysis Set,"0.59 (0.53, 0.64)"
same,TTSP 30-month event-free rate (95% CI),[6]; Full Analysis Set,"0.49 (0.40, 0.58)"
same,TTSP Median (95% CI),[6]; NE = not estimable,"29.31 (29.31, NE) months"
same,"TTSP time to event, 75th percentile (95% CI)",[6]; NE = not estimable,"NE (NE, NE)"
same,Censored (TTST),[7]; Full Analysis Set,232 (54.1%) (%)
same,Event (TTST),[7]; Full Analysis Set,197 (45.9%) (%)
same,TTST 6-month event-free rate (95% CI),[7]; Full Analysis Set,"0.91 (0.88, 0.93)"
same,TTST 12-month event-free rate (95% CI),[7]; Full Analysis Set,"0.77 (0.73, 0.81)"
same,TTST 18-month event-free rate (95% CI),[7]; Full Analysis Set,"0.63 (0.58, 0.67)"
same,TTST Median (95% CI),[7]; Full Analysis Set,"24.08 (22.01, 28.98) months"
same,"TTST time to event, 25th percentile (95% CI)",[7]; Full Analysis Set,"13.11 (10.58, 14.36) months"
same,"TTST time to event, 75th percentile (95% CI)",[7]; NE = not estimable,"NE (NE, NE)"
same,Event (intracranial PFS),[8],75 (43.6%) (%)
same,Intracranial PFS 6-month event-free rate (95% CI),[8],"0.88 (0.82, 0.92)"
same,"Intracranial PFS time to event, 75th percentile (95% CI)",[8]; NE = not estimable,"NE (NE, NE)"
same,Median extracranial progression-free survival (95% CI),[9],18.4 months
same,Detectable EGFRm ctDNA at C3D1 (Week 9),Ex19del and L858R ctDNA,15%
